Results from patent US11241442B2, “Methods of use for TRP channel antagonist-based combination cancer therapies” (President and Fellows of Harvard College, priority 2017, dated 2022).

Assays:
[1] = tested on: MCF-10A cells expressing HER2; experiment: Soft agar colony formation of MCF-10A cells expressing HER2; assay type: cell-based
Description: (§1) Cells were added to the regular MCF-10A or HCC1569 growth media (±AP-18, A-967079, or Trolox) plus 0.4% low-melt agarose (Sigma) and layered onto a bed of growth media plus 0.5% low-melt agarose. Cells were fed every 4 days with growth media (±AP-18, A-967079, or Trolox) plus 0.4% low-melt agarose. At the indicated times, viable colonies were stained with iodonitrotetrazolium chloride (Sigma). Colony number and colony size were determined using ImageJ. Images shown are representative of at least three independent experiments.

[2] = tested on: HCC1569 cells; experiment: Soft agar anchorage-independent growth of HCC1569 cells; assay type: cell-based
Description: as §1

[3] = tested on: MCF-10A acini; experiment: [H2O2]i by Hyper-2 in MCF-10A 3D acini; assay type: cell-based
Description: (§2) For the measurement of [H2O2]i levels in MCF-10A acini and HCC1569 spheroids, cells were transduced with a lentiviral vector encoding Hyper-2 or Hyper-2 (C199S). The Hyper-2 fluorescence was measured at 37° C. in HEPES-buffered saline (HBS) containing the following (in mM): 150 NaCl, 6 KCl, 1.2 MgSO4, 2 CaCl2, 11.5 glucose, and 25 HEPES (pH adjusted to 7.4 with NaOH). Fluorescence images of the cells were acquired through the Eclipse Ti-E microscope (Nikon) with ORCA-R2 cooled CCD camera (Hamamatsu Photonics) and analyzed with Metafluor image acquisition software (Molecular Devices). The 488:405-nm ratio images were obtained on a pixel-by-pixel basis. 3D images are shown as one section from midstructure. For the measurement of [H2O2]i levels in MCF-10A cells cultured in suspension, cell clumps were dissociated with trypsin and stained with 10 μM peroxy green-1 for 30 min at 37° C. Cells were then subjected to flow cytometric analysis (FACSCalibur; BD Biosciences). ROS levels determined by flow cytometry are reported as mean fluorescence intensity expressed in arbitrary units. Hyper-2 ratio images are representative from two independent experiments and averaged Hyper-2 ratio represents mean±SD from the sum of two independent experiments.

[4] = target: T1, TRPA1 (Homo sapiens, UniProt O75762); experiment: [Ca2+]i by fura-2 in HCC1569 spheroids; assay type: cell-based; settings: AP-18, 300 nM A-967079 or 5 mM NAC
T1 construct: endogenous in cells; host or cells: HCC1569 breast cancer cells (2D culture or 3D spheroids; shGFP or shTRPA1 transduced)
Description: (§3) For the measurement of [Ca^2+]i levels in cells cultured in 2D or 3D (in Matrigel), cells were stained with 3.5 μM fura-2-AM (Life Technology) in the presence of 2.5 mM probenecid (Sigma) and 0.02% Pluronic F-127 (Sigma) for 45 min at 37° C. The fura-2 fluorescence was measured in HBS solution containing 1.25 mM probenecid at 37° C. Fluorescence images of the cells were acquired through the Eclipse Ti-E microscope with ORCA-R2 cooled CCD camera and analyzed with Metafluor. The 340:380-nm ratio images were obtained on a pixel-by-pixel basis and were converted to Ca^2+ concentrations by in vivo calibration using 5 μM ionomycin as described previously (Nishida et al., Biochem. Biophys. Res. Commun., 262:350-354, 1999). 3D images are shown as one section from midstructure. For the measurement of [Ca^2+]i levels in cells cultured in suspension, cell clumps were dissociated with trypsin and [Ca^2+]i levels were determined by using Fluo-4 NW Calcium Assay Kit (Molecular Probes). Cells were stained with Fluo-4 according to the manufacturer's instructions and subjected to flow cytometric analysis (FACSCalibur) using HBS as sheath fluid. [Ca^2+]i levels determined by flow cytometry are reported as mean fluorescence intensity expressed in arbitrary units. Time courses of [Ca^2+]i rises in 2D culture are representative of three independent experiments and averaged Δ[Ca^2+]i represents mean±SEM from the sum of three independent experiments. Fura-2 ratio images in 3D culture are representative of two independent experiments and averaged [Ca^2+]i in 3D culture represents mean±SEM from the sum of two independent experiments.

[5] = target: T1, TRPA1; experiment: Ca2+ responses to carboplatin in HCC1569 cells; assay type: cell-based; settings: 10 μM AP-18 or 300 nM A-967079
Description: as §3

[6] = tested on: HCC1569 cells; experiment: Live cell number and cell death under carboplatin in HCC1569 cells; assay type: cell-based; settings: carboplatin 72 h
Description: For the measurements of live cell number and cell death under treatment with H2O2, diamide, or chemotherapies, cells were cultured on 96-well plates in the presence or absence of these drugs for indicated times and stained with 5 μM bisBenzimide H 33342 trihydrochloride (Hoechst; Sigma) and 5 μM propidium iodide (PI; Sigma) for 1 h at 37° C. Hoechst- and/or PI-positive cells were counted using a laser scanning cytometer, Acumen Cellista (TTPLabTech). Apoptotic cells induced by H2O2 treatment were measured by staining with Annexin V-Alexa Fluor® 488 conjugate (Life Technologies) and PI in Ca^2+-containing solution (10 mM HEPES pH 7.4, 140 mM NaCl; 2.5 mM CaCl2), followed by flow cytometric measurement of fluorescence using a FACSCalibur. Flow cytometry plots are representative of three independent experiments. For the counting of viable cells cultured in suspension, cell clumps were dissociated with trypsin and stained with trypan blue. Viable cells were counted using the Countless Automated Cell Counters (Thermo Fisher Scientific). For the measurement of percentage of dead cells cultured in suspension, cells were cultured on poly HEMA-coated 96-well plates and stained with 5 μM Hoechst and 5 μM PI for 1 h at 37° C. without enzymatic dissociation of cell clumps. Hoechst- and/or PI-positive areas were measured using Acumen Cellista. Apoptotic cells induced by detachment were measured by staining with 5 μM Hoechst and 5 μM of CellEvent™ Caspase-3/7 Green Detection Reagent (Thermo Fisher Scientific) for 1 h at 37° C. without enzymatic dissociation of cell clumps. Hoechst- and/or CellEvent™ Caspase-3/7 Green Detection Reagent-positive areas were measured using Acumen Cellista. For the cell cycle analysis, enzymatically dissociated cells were fixed with ice-cold 70% EtOH for at least 30 min at 4° C., washed three times with PBS at 4° C., resuspended in PBS, treated with 100 μg/ml RNase A (Sigma), and stained with 50 μg/ml PI. The stained samples were subjected to flow cytometric analysis (FACSCalibur).

[7] = tested on: TRPA1; experiment: [Ca2+]i by fura-2 in TRPA1-expressing MCF-10A 3D acini; assay type: cell-based; settings: inner ECM-deprived region of MCF-10A acini
Description: as §3

[8] = tested on: HCC1569 spheroids; experiment: [H2O2]i by Hyper-2 in HCC1569 spheroids; assay type: cell-based; settings: AP-18, 300 nM A-967079 or 5 mM NAC
Description: as §2

[9] = tested on: HCC1569 cells; settings: cited from earlier work
[10] = tested on: MCF-10A cells; experiment: [H2O2]i by peroxy green-1 flow cytometry in ECM-detached MCF-10A cells; assay type: cell-based; settings: 1 mM NAC; 24 h after plating in non-adherent plates
Description: as §2

[11] = target: T1, TRPA1; experiment: [Ca2+]i by Fluo-4 flow cytometry in ECM-detached TRPA1-expressing MCF-10A cells; assay type: cell-based; settings: 1 mM NAC; 24 h after plating in non-adherent plates
Description: as §3, with “Time courses of [Ca^2+]i rises in 2D culture are representative of three independent experiments and averaged Δ[Ca^2+]i represents mean±SEM from the sum of three independent experiments. Fura-2 ratio images in 3D culture are representative of two independent experiments and averaged [Ca^2+]i in 3D culture represents mean±SEM from the sum of two independent experiments.” left out

[12] = in vivo; cited from earlier work
[13] = tested on: EL-12-58 xenograft tumors; experiment: EL-12-58 xenograft tumor growth in NRG mice; assay type: in vivo
[14] = Weight loss of EL-12-58 xenograft animals; assay type: in vivo, mice; settings: mean±SD
Description: (§4) All animal studies were performed according to protocols approved by the Institutional Animal Care and Use Committee, the Standing Committee on Animals at Harvard University. One million HCC1569 cells stably expressing either TRPA1 or GFP (control) shRNAs were injected into cleared mammary fatpads of 8-week-old female NOD-Rag1^null IL2rg^null (NRG) mice. Tumor volume (mm^3) was monitored by caliper measurements in two perpendicular dimensions (the formula: (d^2×D)/2, where d and D represent the shortest and longest diameters, respectively) at the indicated time points. After tumors reached 3 to 5 mm in diameter, animals were randomized into the following treatment arms: (i) 37.5 mg/kg carboplatin or (ii) its vehicle (H2O) administrated via intraperitoneal injection for HCC1569 cell-transplanted animals; (i) oral administration of 30.0 mg/kg AM-0902, (ii) intraperitoneal administration of 37.5 mg/kg carboplatin, (iii) oral administration of 30.0 mg/kg AM-0902 plus intraperitoneal administration of 37.5 mg/kg carboplatin, or (iv) oral administration of 1% Tween 80/2% HPMC/97% water/methanesulfonic acid pH 2.2 (vehicle for AM-0902) plus intraperitoneal administration of H2O (vehicle for carboplatin) for EL-12-58 cell-transplanted animals. Power calculations are based on the standard deviation and effect size from pilot experiments in HCC1569 cells. The sample size of seven mice per group provides greater than 95% power to detect a ˜80% difference in change in tumor volume between control and shTRPA1-treated cells with a two-sided type I error rate of 5%. Averaged tumor volume represents mean±SEM.

[15] = tested on: HCC1569 cells; experiment: HCC1569 xenograft tumor growth in NRG mice; assay type: in vivo
Description: as §4, with “The sample size of seven mice per group provides greater than 95% power to detect a ˜80% difference in change in tumor volume between control and shTRPA1-treated cells with a two-sided type I error rate of 5%. Averaged tumor volume represents mean±SEM.” left out
Unstained breast cancer and normal breast tissue arrays were purchased from US Biomax (BR1504a for breast tumors, BN08111 for normal breast tissues). […] Tumor slides stained for TRPA1, blinded and were evaluated by light microscopy and scored by a veterinary pathologist. Images of tissue sections were captured at 4× magnification to create a merged image of the entire section and at 20× magnification for quantification of cleaved caspase-3-positive nuclei, using a Olympus VS120 Slide Scanner. […] Relative apoptosis was quantified by determining the percentage of cleaved caspase-3-positive cells from more than five random fields, per section, from each tumor in the group, and normalized to the shGFP-expressing tumors treated with vehicle. […]

T1 sequence (O75762 whole entry): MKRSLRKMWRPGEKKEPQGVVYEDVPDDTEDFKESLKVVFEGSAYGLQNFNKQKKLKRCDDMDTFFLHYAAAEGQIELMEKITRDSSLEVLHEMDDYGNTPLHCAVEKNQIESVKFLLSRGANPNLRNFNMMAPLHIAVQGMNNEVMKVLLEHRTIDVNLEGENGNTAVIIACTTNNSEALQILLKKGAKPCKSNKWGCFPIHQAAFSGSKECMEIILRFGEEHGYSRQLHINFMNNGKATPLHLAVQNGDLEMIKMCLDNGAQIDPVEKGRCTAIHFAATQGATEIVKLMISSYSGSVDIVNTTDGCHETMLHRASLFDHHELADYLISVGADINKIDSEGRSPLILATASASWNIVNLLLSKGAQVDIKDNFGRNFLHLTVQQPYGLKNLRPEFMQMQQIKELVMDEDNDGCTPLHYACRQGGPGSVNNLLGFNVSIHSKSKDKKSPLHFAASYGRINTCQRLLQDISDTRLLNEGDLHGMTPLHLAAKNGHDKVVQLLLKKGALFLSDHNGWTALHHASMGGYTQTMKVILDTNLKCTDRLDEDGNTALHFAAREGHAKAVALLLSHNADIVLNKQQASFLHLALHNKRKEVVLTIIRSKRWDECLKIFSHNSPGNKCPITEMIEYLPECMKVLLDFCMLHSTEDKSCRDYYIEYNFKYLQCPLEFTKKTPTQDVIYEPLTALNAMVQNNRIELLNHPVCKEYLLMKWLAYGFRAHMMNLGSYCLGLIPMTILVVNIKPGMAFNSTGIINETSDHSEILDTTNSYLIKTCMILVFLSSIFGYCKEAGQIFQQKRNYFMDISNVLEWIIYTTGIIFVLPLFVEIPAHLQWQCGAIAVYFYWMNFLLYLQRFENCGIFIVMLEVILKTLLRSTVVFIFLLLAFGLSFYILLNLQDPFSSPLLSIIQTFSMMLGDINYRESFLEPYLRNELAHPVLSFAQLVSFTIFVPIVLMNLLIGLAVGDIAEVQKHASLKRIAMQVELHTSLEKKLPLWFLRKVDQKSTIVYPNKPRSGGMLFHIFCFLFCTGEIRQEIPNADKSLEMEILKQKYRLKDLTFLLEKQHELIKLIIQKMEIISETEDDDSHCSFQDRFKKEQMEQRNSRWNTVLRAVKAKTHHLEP

Cc1c(C)c2c(c(C)c1O)CCC(C)(C(=O)O)O2 (stereo not drawn) [Trolox]
colony number and size ([1]; Trolox treatment): strongly increased | TRPA1-induced increase in number and average size of colonies ([1]; wild-type or E681K TRPA1 expression): eliminated

CCC(=N\O)/C(C)=C/c1ccc(F)cc1 [A-967079]
anchorage-independent growth (number and average size of colonies) [2]: impaired | increase in [H2O2]i (Hyper-2) in inner ECM-deprived cells [3]: unaffected | elevated [Ca2+]i of inner cells of spheroids [4]: suppressed | [Ca2+]i rises upon carboplatin treatment [5]: significantly suppressed | oscillatory Ca2+ responses upon carboplatin treatment [5]: significantly suppressed | cell death in response to carboplatin treatment [6]: enhanced | live cell number in response to carboplatin treatment [6]: substantially suppressed | TRPA1- or E681K-induced [Ca2+]i rises [7]: abolished | increase in [H2O2]i (Hyper-2) in inner region of spheroids [8]: unaffected

N.N.[Cl][Pt][Cl] [cisplatin]
Resistance rank among 893 cancer cell lines [9]: 45 | resistance z-score [9]: 1.54

CC(=O)N[C@@H](CS)C(=O)O [NAC, N-Acetyl-L-cysteine]
increase in [H2O2]i (Hyper-2) in inner ECM-deprived cells [3]: abolished | elevated [Ca2+]i of inner cells of spheroids [4]: suppressed | detachment-induced increase in [H2O2]i [10]: suppressed | TRPA1-mediated chemoresistance to carboplatin ([6]; 5 mM NAC): largely eliminated | TRPA1- or E681K-induced [Ca2+]i rises [7]: abolished | increase in [H2O2]i (Hyper-2) in inner region of spheroids [8]: abolished | detachment-induced TRPA1-dependent increase in [Ca2+]i [11]: abolished

Cn1cnc2ncn(Cc3nc(CCc4ccc(Cl)cc4)no3)c(=O)c21 [AM-0902]
plasma half-life (T1/2) [12]: 2.8 h | tumor volume / tumor growth ([13]; AM-0902 30.0 mg/kg oral twice daily, carboplatin 37.5 mg/kg intraperitoneal): reduced | tumor mass ([13]; at end point, AM-0902 30.0 mg/kg oral twice daily, carboplatin 37.5 mg/kg intraperitoneal): reduced | live tumor cell area relative to total area (H&E) ([13]; compared with vehicle or single carboplatin treatment): reduced

N.N.O=C([O-])C1(C(=O)[O-])CCC1.[Pt+2] [carboplatin]
averaged weight loss ([14]; day 26): 3.94±1.02% | averaged weight loss ([14]; day 29): 7.01±2.80% | averaged weight loss ([14]; day 32): 10.3±3.36% | tumor response to carboplatin ([15]; tumors expressing shGFP (control), 37.5 mg/kg carboplatin intraperitoneal twice a week): resistant | tumor growth after carboplatin treatment ([15]; tumors expressing shTRPA1, 37.5 mg/kg carboplatin intraperitoneal twice a week): significant reduction | apoptosis (cleaved caspase-3 staining of tumor sections) ([15]; tumors expressing shTRPA1, carboplatin treatment): increased
